Legend:
[1] = biological target: T1, Amine oxidase [flavin-containing] B (Bos taurus, UniProt P56560); assay: Tested for enzyme affinity with purified bovine liver MAO B
T1 sequence (P56560 whole entry): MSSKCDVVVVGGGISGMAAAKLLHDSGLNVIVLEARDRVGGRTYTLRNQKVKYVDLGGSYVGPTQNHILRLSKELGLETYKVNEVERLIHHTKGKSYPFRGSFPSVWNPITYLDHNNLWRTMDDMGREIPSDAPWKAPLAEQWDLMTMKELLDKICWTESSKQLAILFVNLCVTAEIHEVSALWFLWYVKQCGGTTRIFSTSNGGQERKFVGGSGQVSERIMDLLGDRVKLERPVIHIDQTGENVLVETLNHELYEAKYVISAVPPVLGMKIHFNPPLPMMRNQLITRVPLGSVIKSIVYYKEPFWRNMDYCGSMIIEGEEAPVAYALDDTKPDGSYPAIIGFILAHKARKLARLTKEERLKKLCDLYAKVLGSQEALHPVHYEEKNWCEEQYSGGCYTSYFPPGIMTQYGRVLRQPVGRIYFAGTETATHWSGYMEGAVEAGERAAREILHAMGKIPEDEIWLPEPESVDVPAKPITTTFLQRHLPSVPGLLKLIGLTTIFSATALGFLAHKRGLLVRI

[2] = biological target: T2, Amine oxidase [flavin-containing] A (Bos taurus, UniProt P21398); assay: Tested for enzyme kinetic activity with purified bovine liver MAO A; settings: cattle
T2 sequence (P21398 whole entry): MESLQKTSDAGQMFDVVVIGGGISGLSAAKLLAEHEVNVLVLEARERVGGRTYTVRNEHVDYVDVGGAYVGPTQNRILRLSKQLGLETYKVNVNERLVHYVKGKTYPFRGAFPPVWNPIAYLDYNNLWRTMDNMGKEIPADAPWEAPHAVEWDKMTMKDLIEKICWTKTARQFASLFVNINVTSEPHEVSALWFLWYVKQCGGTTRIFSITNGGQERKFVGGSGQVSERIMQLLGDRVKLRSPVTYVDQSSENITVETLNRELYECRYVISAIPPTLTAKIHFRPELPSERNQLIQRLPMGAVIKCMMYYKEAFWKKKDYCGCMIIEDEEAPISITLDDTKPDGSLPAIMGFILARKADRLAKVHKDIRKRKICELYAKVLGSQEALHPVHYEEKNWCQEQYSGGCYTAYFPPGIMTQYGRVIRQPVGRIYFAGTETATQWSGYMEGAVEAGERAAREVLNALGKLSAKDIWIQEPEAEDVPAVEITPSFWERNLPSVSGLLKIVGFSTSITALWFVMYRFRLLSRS

[3] = biological target: T2, Amine oxidase [flavin-containing] A; assay: Tested for enzyme affinity with purified bovine liver MAO A
[4] = biological target: T1, Amine oxidase [flavin-containing] B; assay: Tested for enzyme kinetic activity with purified bovine liver MAO B; settings: cattle

Ki [1]: 5 µM
kinact [2]: 0.000467 s⁻¹
Ki [3]: 340 µM
kinact [4]: 0.0117 s⁻¹
SMILES: NCCOCc1cccc(Cl)c1
